{
  "source": "patent US20100150839A1",
  "about": "“Compositions and Methods for Modulating Cognitive Function” (Massachusetts Institute of Technology, priority 2005, published 2010)",
  "key": {"[1]": {"test_system": "cultured hippocampal neurons", "experiment": "Metabolic pulse labeling (35S-methionine incorporation) in cultured hippocampal neurons", "format": "cell-based, rat", "conditions": "for Increase in translation levels: hippocampal neuronal cultures, 35S metabolic labeling"}, "phospho-S6 (S235/S236)": {"test_system": "phospho-S6 (S235/S236)", "experiment": "Western analysis of S6 phosphorylation", "format": "cell-based, rat", "experimental": "(§1) Western analysis. Homogenates were prepared in cold RIPA buffer containing protease inhibitors and phosphatase inhibitors. Hippocampal neurons were homogenized 8 minutes after stimulation. Hippocampal slices were frozen on dry ice 10 minutes after tetanization, and the CA1 and CA3 fields were microdissected and homogenized. Western analysis was performed with rabbit polyclonal antisera against dually-phosphorylated ERK1/2, phospho-S6 (S235/S236), phospho-eIF4E (S209), and phospho-4E-BP (S65) (Cell Signaling). […] Therefore, since 4E-BP2 is the most abundantly expressed 4E-BP in the brain, it is likely that the results reflected 4E-BP2 levels and phosphorylation state. Blots were stripped and reprobed with antisera directed against total ERK1/2, S6, eIF4E, and 4E-BP (Cell Signaling). Results were quantified with ImageJ (NIH), calculated as the ratio of phosphorylated species to […], and then normalized to the untreated control condition Staining of total protein with Ponceau-S confirmed equal loading."}, "phospho-eIF4E (S209)": {"test_system": "phospho-eIF4E (S209)", "experiment": "Western analysis of eIF4E phosphorylation", "format": "cell-based, rat", "experimental": "as §1"}, "hippocampal brain slices": {"test_system": "hippocampal brain slices", "experiment": "Metabolic labeling of newly synthesized proteins in hippocampal brain slices", "format": "cell-based"}, "[2]": {"test_system": "cultured primary hippocampal neurons", "experiment": "Translation reporter assay: EGFP-αCaMKII 3′ UTR reporter mRNA transfected into neurons", "format": "cell-based, rat"}, "phospho-4E-BP (S65)": {"test_system": "phospho-4E-BP (S65)", "experiment": "Western analysis of 4E-BP phosphorylation", "format": "cell-based, rat", "experimental": "as §1"}, "[3]": {"test_system": "dually-phosphorylated ERK1/2"}, "hippocampal slices": {"test_system": "hippocampal slices", "format": "cell-based, mice"}, "[4]": {"conditions": "hippocampal cultures, Western Blot"}, "[5]": {"conditions": "cultured hippocampal neurons (FIG. 10), agonist 10 uM or 50 uM"}, "[6]": {"conditions": "hippocampal brain slices (FIG. 9), agonist 10 uM or 50 uM"}},
  "note": "Values joined by “and” are separate entries in the source; they are usually repeats but may differ in a detail not shown here. Equal values may be shown once. “Also recorded” adds a separate entry of the source. Read-outs that look alike come from different tables or passages of the source.",
  "data": [
    {"molecule": "OCC(O)c1ccc(O)c(O)c1", "note": "(centres unmarked) [DHPG, 3,4-Dihydroxyphenylglycol]", "values": [
      {"measurement": "Increase in translation levels", "setting": "[1]", "value": 50, "unit": "%+/−20%"},
      {"measurement": "Increase in phosphorylation of S6", "setting": "phospho-S6 (S235/S236); [4]", "value": 52, "unit": "%+/−18%"},
      {"measurement": "Increase in phosphorylation of eIF4E", "setting": "phospho-eIF4E (S209); [4]", "value": 33, "unit": "%+/−3%"}
    ]},
    {"molecule": "CC(C)NCC(O)c1ccc(O)c(O)c1", "note": "(centres unmarked) [isoproteronol]", "values": [
      {"measurement": "Translation of endogenous neuronal mRNAs (metabolic labeling of newly synthesized proteins)", "setting": "[1]; [5]", "value": "stimulate translation"},
      {"measurement": "Translation of endogenous neuronal mRNAs (metabolic labeling of newly synthesized proteins)", "setting": "hippocampal brain slices; [6]", "value": "stimulate translation"}
    ]},
    {"molecule": "Oc1cc2c(cc1O)C(c1ccccc1)CNCC2", "note": "(centres unmarked) [SKF38393]", "values": [
      {"measurement": "Translation of endogenous neuronal mRNAs (metabolic labeling of newly synthesized proteins)", "setting": "[1]; [5]", "value": "stimulate translation"},
      {"measurement": "Translation of endogenous neuronal mRNAs (metabolic labeling of newly synthesized proteins)", "setting": "hippocampal brain slices; [6]", "value": "stimulate translation"}
    ]},
    {"molecule": "O=[N+]([O-])c1cc2nc(O)c(O)nc2cc1[N+](=O)[O-]", "note": "[DNQX]", "values": [
      {"measurement": "Translation of EGFP-αCaMKII-A20 reporter mRNA", "setting": "[2]", "value": "significantly inhibited"}
    ]},
    {"molecule": "N#CC(=C(/N)Sc1ccccc1N)/C(C#N)=C(\\N)Sc1ccccc1N", "note": "[U0126]", "values": [
      {"measurement": "Effect of concurrent treatment on stimulated EGFP-αCaMKII-A20 mRNA translation", "setting": "[2]", "value": "significantly attenuated the effects of stimulation"},
      {"measurement": "Sensitivity of activity-induced reporter mRNA translation to inhibition", "setting": "[2]", "value": "persisted after mutation of the CPEs"},
      {"measurement": "Translation of EGFP-αCaMKII-A20 reporter mRNA, combined pretreatment", "setting": "[2]", "value": "no additional inhibition"},
      {"measurement": "Bulk translation of endogenous transcripts (35S-methionine incorporation)", "setting": "[1]", "value": "strongly inhibited"},
      {"measurement": "Effect of pretreatment on agonist-induced increases in neuronal protein synthesis", "setting": "[1]", "value": "blocked"},
      {"measurement": "Effect on DHPG-induced increase in translation rates", "setting": "[1]", "value": "blocked"},
      {"measurement": "Effect on dopamine-induced increase in translation", "setting": "[1]", "value": "blocked"},
      {"measurement": "Effect on spaced depolarization-induced increase in translation", "setting": "[1]", "value": "blocked"},
      {"measurement": "Effect on DHPG-induced increase in phosphorylation of S6", "setting": "phospho-S6 (S235/S236)", "value": "blocked"},
      {"measurement": "Phosphorylation of S6", "setting": "phospho-S6 (S235/S236)", "value": "significantly inhibited; also recorded: significantly reduced"},
      {"measurement": "Effect on DHPG-induced increase in phosphorylation of eIF4E", "setting": "phospho-eIF4E (S209)", "value": "blocked"},
      {"measurement": "Phosphorylation of eIF4E", "setting": "phospho-eIF4E (S209)", "value": "significantly inhibited; also recorded: significantly reduced"},
      {"measurement": "Phosphorylation of 4E-BP", "setting": "phospho-4E-BP (S65)", "value": "significantly inhibited"},
      {"measurement": "Effect of pretreatment on agonist-induced increases in neuronal protein synthesis", "setting": "hippocampal brain slices", "value": "blocked"},
      {"measurement": "ERK phosphorylation (phospho-ERK levels)", "setting": "[3]", "value": "entirely abolished"},
      {"measurement": "Phosphorylation of ERK", "setting": "[3]", "value": "significantly reduced"},
      {"measurement": "Translation of endogenous synaptodendritic mRNAs", "setting": "synaptoneurosomes", "value": "significantly reduced"}
    ]},
    {"molecule": "C[N+](C)(C)CCOC(N)=O", "note": "[carbachol]", "values": [
      {"measurement": "Translation of endogenous neuronal mRNAs (metabolic labeling of newly synthesized proteins)", "setting": "[1]; [5]", "value": "stimulate translation"},
      {"measurement": "Translation of endogenous neuronal mRNAs (metabolic labeling of newly synthesized proteins)", "setting": "hippocampal brain slices; [6]", "value": "stimulate translation"}
    ]},
    {"molecule": "COc1ccc(C[C@H]2NC[C@H](O)[C@H]2OC(C)=O)cc1", "note": "[anisomycin]", "values": [
      {"measurement": "Additional decrement in L-LTP", "setting": "hippocampal slices", "value": "did not produce any additional decrement in L-LTP"},
      {"measurement": "Kinetic pattern of L-LTP inhibition", "setting": "hippocampal slices", "value": "progressive inhibition of L-LTP"},
      {"measurement": "L-LTP magnitude at 200 minutes", "setting": "hippocampal slices", "value": "108±5% and 113±5%"}
    ]},
    {"molecule": "NCCc1ccc(O)c(O)c1", "note": "[dopamine]", "values": [
      {"measurement": "Increase in translation levels", "setting": "[1]", "value": 77, "unit": "%+/−26%"}
    ]},
    {"molecule": "Sp-cAMPS", "values": [
      {"measurement": "Effect on translation (in words)", "setting": "[1]", "value": "increased translation"}
    ]},
    {"molecule": "NC(CCCP(=O)(O)O)C(=O)O", "note": "(centres unmarked) [AP5]", "values": [
      {"measurement": "Translation of EGFP-αCaMKII-A20 reporter mRNA", "setting": "[2]; spontaneous neuronal activity, pretreatment with AP5 (100 μM) and DNQX (10 μM) together", "value": "significantly inhibited"}
    ]},
    {"molecule": "actinomycin-D", "values": [
      {"measurement": "Additional decrement in L-LTP", "setting": "hippocampal slices", "value": "did not produce any additional decrement in L-LTP"},
      {"measurement": "Kinetic pattern of L-LTP inhibition", "setting": "hippocampal slices", "value": "distinct, delayed pattern of inhibition"},
      {"measurement": "L-LTP magnitude at 60 min. post-tetanization", "setting": "hippocampal slices", "value": "157±4% and 157±3%"},
      {"measurement": "L-LTP magnitude at 200 minutes", "setting": "hippocampal slices", "value": "107±4% and 122±5%"},
      {"measurement": "Time after onset of tetanization during which L-LTP magnitude remained indistinguishable from untreated slices", "setting": "hippocampal slices", "value": "approximately 75 minutes"}
    ]},
    {"molecule": "CCCN1CCC[C@@H]2Cc3n[nH]cc3C[C@H]21", "note": "[quinpirole]", "values": [
      {"measurement": "Translation of endogenous neuronal mRNAs (metabolic labeling of newly synthesized proteins)", "setting": "[1]", "value": "stimulate translation"},
      {"measurement": "Translation of endogenous neuronal mRNAs (metabolic labeling of newly synthesized proteins)", "setting": "hippocampal brain slices", "value": "stimulate translation"}
    ]},
    {"molecule": "BDNF: brain derived neurotrophic factor; activates trkB (protein, UniProt P23560 19-247, looked up) Neurotrophic factor BDNF …: APMKEANIRGQGGLAYPGVRTHGTLESVNGPKAGSRGLTSLADTFEHVIEELLDEDQKVRPNEENNKDADLYTSRVMLSSQVPLEPPLLFLLEEYKNYLDAANMSMRVRRHSDPARRGELSVCDSISEWVTAADKKTAVDMSGGTVTVLEKVPVSKGQLKQYFYETKCNPMGYTKEGCRGIDKRHWNSQCRTTQSYVRALTMDSKKRIGWRFIRIDTSCVCTLTIKRGR", "values": [
      {"measurement": "Stimulation of EGFP-αCaMKII-A20 mRNA translation", "setting": "[2]; 100 ng/mL BDNF for 4 hours, 40 μM bicuculline for 8 min., after U0126 preincubation and wash", "value": "significant increases"}
    ]}
  ]
}
